Source: PubChem BioAssay (NCI)
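Protocol summary: plate cells (96-well), add compound at 5 concentrations, incubate 48 h, interpolate endpoints linearly. Definition used: TGI = concentration required for complete inhibition of growth.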

Experiments:
Assay in all cases: growth of human tumour cells (NCI), 48 h
[1] = test system: 786-0 renal
[2] = test system: A498 renal
[3] = test system: A549 NSCLC
[4] = test system: ACHN renal
[5] = test system: BT-549 breast
[6] = test system: CAKI-1 renal
[7] = test system: CCRF-CEM leukemia
[8] = test system: COLO 205 colon
[9] = test system: EKVX NSCLC
[10] = test system: HCC-2998 colon
[11] = test system: HCT-116 colon
[12] = test system: HCT-15 colon
[13] = test system: HL-60(TB) leukemia
[14] = test system: HOP-62 NSCLC
[15] = test system: HOP-92 NSCLC
[16] = test system: HS 578T breast
[17] = test system: HT29 colon
[18] = test system: IGROV1 ovarian
[19] = test system: K-562 leukemia
[20] = test system: KM12 colon
[21] = test system: LOX IMVI melanoma
[22] = test system: M14 melanoma
[23] = test system: MALME-3M melanoma
[24] = test system: MDA-MB-231 breast
[25] = test system: MDA-MB-435
[26] = test system: MDA-N
[27] = test system: MOLT-4 leukemia
[28] = test system: NCI-H226 lung
[29] = test system: NCI-H23 lung
[30] = test system: NCI-H460 lung
[31] = test system: NCI-H522 lung
[32] = test system: NCI/ADR-RES ovarian
[33] = test system: OVCAR-3 ovarian
[34] = test system: OVCAR-4 ovarian
[35] = test system: OVCAR-5 ovarian
[36] = test system: OVCAR-8 ovarian
[37] = test system: PC-3 prostate
[38] = test system: RPMI-8226 leukemia
[39] = test system: RXF 393 renal
[40] = test system: SF-268 CNS
[41] = test system: SF-295 CNS
[42] = test system: SF-539 CNS
[43] = test system: SK-MEL-2 melanoma
[44] = test system: SK-MEL-28 melanoma
[45] = test system: SK-MEL-5 melanoma
[46] = test system: SK-OV-3 ovarian
[47] = test system: SN12C renal
[48] = test system: SNB-19 CNS
[49] = test system: SNB-75 CNS
[50] = test system: SR leukemia
[51] = test system: SW-620 colon
[52] = test system: T-47D breast
[53] = test system: TK-10 renal
[54] = test system: U251 CNS
[55] = test system: UACC-257 melanoma
[56] = test system: UO-31 renal
[57] = test system: DU-145 prostate
[58] = test system: UACC-62 melanoma
[59] = test system: MCF7 breast

Which results are given for `[N-]=[N+]=Nc1c(N2CCOCC2)c(Cl)nc2ccccc12`?
TGI [1]: > 100 µM; TGI [2]: > 100 µM; TGI [3]: > 100 µM; TGI [4]: > 100 µM; TGI [5]: > 100 µM; TGI [6]: > 100 µM; TGI [7]: > 100 µM; TGI [8]: > 100 µM; TGI [9]: > 100 µM; TGI [10]: > 100 µM; TGI [11]: > 100 µM; TGI [12]: > 100 µM; TGI [13]: > 100 µM; TGI [14]: > 100 µM; TGI [15]: > 100 µM; TGI [16]: > 100 µM; TGI [17]: 72.9 µM; TGI [18]: > 100 µM; TGI [19]: > 100 µM; TGI [20]: 88.6 µM; TGI [21]: > 100 µM; TGI [22]: > 100 µM; TGI [23]: > 100 µM; TGI [24]: > 100 µM; TGI [25]: > 100 µM; TGI [26]: > 100 µM; TGI [27]: > 100 µM; TGI [28]: > 100 µM; TGI [29]: > 100 µM; TGI [30]: > 100 µM; TGI [31]: > 100 µM; TGI [32]: > 100 µM; TGI [33]: > 100 µM; TGI [34]: > 100 µM; TGI [35]: > 100 µM; TGI [36]: > 100 µM; TGI [37]: > 100 µM; TGI [38]: > 100 µM; TGI [39]: > 100 µM; TGI [40]: > 100 µM; TGI [41]: > 100 µM; TGI [42]: > 100 µM; TGI [43]: > 100 µM; TGI [44]: > 100 µM; TGI [45]: 49.6 µM; TGI [46]: > 100 µM; TGI [47]: > 100 µM; TGI [48]: > 100 µM; TGI [49]: > 100 µM; TGI [50]: > 100 µM; TGI [51]: > 100 µM; TGI [52]: > 100 µM; TGI [53]: > 100 µM; TGI [54]: > 100 µM; TGI [55]: 78.3 µM; TGI [56]: > 100 µM

How did the TGI [1] turn out when `COc1ccc(CCCNC(=O)Cc2cc(OC)c(OC)cc2CO)cc1OC` was run?
Its TGI is over 100 µM.

What about the TGI [2] of the same compound?
Its TGI is over 100 µM.

What about the TGI [3] of the same compound?
The TGI was over 100 µM.

And the TGI [4]?
Its TGI is over 100 µM.

And the TGI [5]?
Its TGI is over 100 µM.

And the TGI [6]?
Its TGI is over 100 µM.

What about the TGI [7] of the same compound?
The TGI was over 100 µM.

And the TGI [8]?
The TGI was over 100 µM.

What about the TGI [57] of the same compound?
The TGI was over 100 µM.

And the TGI [9]?
The TGI was over 100 µM.

And the TGI [10]?
The TGI was over 100 µM.

And the TGI [11]?
The TGI was over 100 µM.

And the TGI [12]?
The TGI was over 100 µM.

What about the TGI [13] of the same compound?
Its TGI is over 100 µM.

What about the TGI [14] of the same compound?
The TGI was over 100 µM.

What about the TGI [15] of the same compound?
Its TGI is over 100 µM.

And the TGI [16]?
Its TGI is over 100 µM.

What about the TGI [17] of the same compound?
The TGI was over 100 µM.

What about the TGI [18] of the same compound?
Its TGI is over 100 µM.

What about the TGI [19] of the same compound?
The TGI was over 100 µM.

What about the TGI [20] of the same compound?
The TGI was over 100 µM.

What about the TGI [21] of the same compound?
The TGI was over 100 µM.

What about the TGI [22] of the same compound?
The TGI was over 100 µM.

And the TGI [23]?
Its TGI is over 100 µM.

And the TGI [24]?
The TGI was over 100 µM.

And the TGI [25]?
The TGI was over 100 µM.

And the TGI [26]?
The TGI was over 100 µM.

And the TGI [27]?
The TGI was over 100 µM.

And the TGI [28]?
Its TGI is over 100 µM.

What about the TGI [29] of the same compound?
The TGI was over 100 µM.

And the TGI [30]?
Its TGI is over 100 µM.

What about the TGI [32] of the same compound?
Its TGI is over 100 µM.

What about the TGI [33] of the same compound?
The TGI was over 100 µM.

What about the TGI [34] of the same compound?
Its TGI is over 100 µM.

And the TGI [35]?
The TGI was over 100 µM.

And the TGI [36]?
Its TGI is over 100 µM.

What about the TGI [37] of the same compound?
Its TGI is over 100 µM.

And the TGI [43]?
The TGI was over 100 µM.

And the TGI [44]?
The TGI was over 100 µM.

What about the TGI [45] of the same compound?
The TGI was over 100 µM.

What about the TGI [47] of the same compound?
The TGI was over 100 µM.

And the TGI [48]?
Its TGI is over 100 µM.

And the TGI [49]?
The TGI was over 100 µM.

What about the TGI [50] of the same compound?
Its TGI is over 100 µM.

What about the TGI [51] of the same compound?
Its TGI is over 100 µM.

What about the TGI [52] of the same compound?
Its TGI is over 100 µM.

And the TGI [53]?
The TGI was over 100 µM.

And the TGI [54]?
The TGI was over 100 µM.

What about the TGI [55] of the same compound?
Its TGI is over 100 µM.

What about the TGI [58] of the same compound?
Its TGI is over 100 µM.

And the TGI [56]?
The TGI was over 100 µM.

What does the source list for `CC(C)(C)c1cc(OCc2nnc3sc(-c4ccc(Cl)cc4)nn23)c(Cl)cc1OCc1nnc2sc(-c3ccc(Cl)cc3)nn12`?
TGI [1]: 16.5 µM; TGI [2]: 26.1 µM; TGI [3]: 20.4 µM; TGI [4]: 24.4 µM; TGI [5]: 34.6 µM; TGI [6]: 11.4 µM; TGI [8]: 29.3 µM; TGI [57]: 31.3 µM; TGI [9]: 97.9 µM; TGI [10]: 9.72 µM; TGI [11]: 26 µM; TGI [12]: 38.8 µM; TGI [13]: 7.36 µM; TGI [14]: 51.4 µM; TGI [15]: 16.3 µM; TGI [16]: > 100 µM; TGI [17]: 83.6 µM; TGI [18]: 21.4 µM; TGI [19]: 12.5 µM; TGI [20]: 11.1 µM; TGI [21]: 54.2 µM; TGI [22]: 88.6 µM; TGI [23]: 21.8 µM; TGI [59]: 10.9 µM; TGI [24]: 38.3 µM; TGI [26]: 3.46 µM; TGI [27]: 31.2 µM; TGI [28]: 54.3 µM; TGI [29]: 20.6 µM; TGI [30]: 12.9 µM; TGI [31]: 29.9 µM; TGI [32]: 35.6 µM; TGI [33]: 8.73 µM; TGI [34]: 57.8 µM; TGI [35]: 88.9 µM; TGI [36]: 19.8 µM; TGI [37]: > 100 µM; TGI [38]: 23.6 µM; TGI [39]: 19.3 µM; TGI [40]: > 100 µM; TGI [41]: 18.2 µM; TGI [42]: 15.2 µM; TGI [43]: 44.9 µM; TGI [44]: 33.3 µM; TGI [45]: 3.47 µM; TGI [46]: 27 µM; TGI [47]: > 100 µM; TGI [48]: 87.6 µM; TGI [49]: 9.8 µM; TGI [50]: 2.91 µM; TGI [51]: 32.9 µM; TGI [52]: 14.9 µM; TGI [53]: 36.8 µM; TGI [54]: 28.7 µM; TGI [55]: 40.7 µM; TGI [58]: 39.1 µM; TGI [56]: 26.1 µM
